Measurements taken from patent publication US20260265305A1, “POLYPEPTIDE DERIVATIVE FOR ORAL DELIVERY” (Hangzhou Sciwind Biosciences Co., Ltd., priority 2023, published 2026).
Numbered stars: 1 amine (or outer) side, 2 acyl side, 3 side chain; on linkers, the order of the positions; unused ones are H or OH. Peptide text beside a SMILES is read from it. * marks the point of attachment. C20 diacid = O=C(O)CCCCCCCCCCCCCCCCCCC(=O)*; C18 diacid = O=C(O)CCCCCCCCCCCCCCCCC(=O)*; C16 diacid = O=C(O)CCCCCCCCCCCCCCC(=O)*; γGlu = O=C(O)[C@H](CCC(=O)[*:2])N[*:1]; Trx = NC[C@H]1CC[C@H](C(=O)O)CC1; AEEA = NCCOCCOCC(=O)O

Legend:
amylin receptor (hAMY3R) = molecular target: T1, amylin receptor (hAMY3R) (Homo sapiens, UniProt O60896+P30988); assay: Amylin receptor agonism testing, CRE-luciferase assay in stably transfected CHO-K1/Ga15/AMY3 cells; assay type: cell-based; settings: relative to D1 as benchmark
T1 construct: host or cells: CHO-K1/Ga15/AMY3 cells, further stably transfected with a CRE-luciferase plasmid
T1 sequence (P30988 25-474): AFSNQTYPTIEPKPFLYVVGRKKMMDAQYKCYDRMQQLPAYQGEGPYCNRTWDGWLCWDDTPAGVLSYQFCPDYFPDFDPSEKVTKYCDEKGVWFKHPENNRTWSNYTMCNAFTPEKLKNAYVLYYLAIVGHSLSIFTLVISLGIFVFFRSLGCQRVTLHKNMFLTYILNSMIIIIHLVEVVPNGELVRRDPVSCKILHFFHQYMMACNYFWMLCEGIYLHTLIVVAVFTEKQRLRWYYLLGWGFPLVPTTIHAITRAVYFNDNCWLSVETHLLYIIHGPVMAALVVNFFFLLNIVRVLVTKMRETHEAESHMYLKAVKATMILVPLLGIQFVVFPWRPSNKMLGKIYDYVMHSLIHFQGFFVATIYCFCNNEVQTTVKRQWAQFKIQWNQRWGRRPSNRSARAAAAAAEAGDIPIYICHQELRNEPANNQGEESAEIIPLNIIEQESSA
T1 sequence (O60896 24-148): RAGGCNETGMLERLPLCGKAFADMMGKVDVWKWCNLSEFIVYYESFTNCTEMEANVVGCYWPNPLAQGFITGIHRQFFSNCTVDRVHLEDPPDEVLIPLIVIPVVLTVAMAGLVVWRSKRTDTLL

[1] = molecular target: T2, calcitonin receptor (hCTR) (Homo sapiens, UniProt P30988); assay: Calcitonin receptor agonism, CRE-luciferase assay in stably transfected CHO-K1/CALCR/Ga15 cells; assay type: cell-based; settings: for EC50: incubation of 24 hours, Table 4, read-out: EC50, activity against the calcitonin receptor in cells; for Fold change in activity against hCTR: relative to D1 as benchmark
T2 construct: host or cells: CHO-K1/CALCR/Ga15 cells, further stably transfected with a CRE-luciferase plasmid
T2 sequence (P30988 25-474): T1 sequence (P30988 25-474)

[2] = Heat accelerated stability assay of polypeptide solutions (40° C., pH about 7.4), reversed phase chromatography; assay type: physicochemical; settings: 40° C.; for Concentration change on 26 d / Concentration change on 7 d: pH about 7.4, 1 mg/mL; for Concentration change on 26 d / Purity change on 26 d: Day 26; for Purity change on 7 d / Purity change on 26 d: reversed phase chromatography 214 nm; for Purity change on 7 d / Concentration change on 7 d: Day 7; for Purity change on 7 d: purity on 7 d − purity on 0 d; for Purity change on 26 d: purity on 26 d − purity on 0 d
Procedure: A stability test chamber (BINDER GmbH), a 0.01 mg-readability balance (METTLER TOLEDO), a pH meter (METTLER TOLEDO), a biosafety cabinet (ESCO), T2G-II small-sized motor-driven capping machine (Changsha zhongya pharmaceutical equipment co. LTD), a high-speed refrigerated centrifuge (Eppendorf), a sterilizer cabinet (Shinva Medical), Agilent 1260 high-performance liquid chromatographer, and Sepax Bio-C18 4.6*250 mm 3 μm 200 Å reversed phase column were used.
Reagents and consumables included: ultrapure water (18.2 MΩ, self-made), acetonitrile (HPLC grade), trifluoroacetic acid (HPLC grade), sodium dihydrogen phosphate (pharmaceutical grade, Hunan Jiudian Hongyang Pharmaceutical Co., Ltd), hydrochloric acid (pharmaceutical grade, Hunan Er-Kang Pharmaceutical Co., Ltd), sodium hydroxide (Analytical Reagent grade, Hushi®, Sinopharm Chemical Reagent Co., Ltd), vials, rubber stoppers, disposable syringes, and sterile filters.
The lyophilized powder (1 mg/mL) of the polypeptide derivative prepared in accordance with the method of Example 1 was mixed with sodium dihydrogen phosphate (1.42 mg/mL) and dissolved in ultrapure water in the indicated mass-volume ratios. After adjusting pH to about 7.4 with hydrochloric acid/sodium hydroxide, the solution was filtered into a sterilized vial in a clean bench using a 0.22 μm sterile filter. The vial was then capped and placed into the stability test chamber at 40° C. Detections were made on Days 7 (7d) and 26 (26d), and during the assay, changes in the characteristics and properties of the polypeptide were observed and recorded. The sample was then centrifuged for 3 min at 10,000 rpm at 4° C., and the supernatant was transferred to a liquid phase sample vial for detecting the concentration and purity of the polypeptides using liquid phase chromatography described as below, wherein the concentration of the polypeptide=peak area/injection volume/extinction coefficient/60×flow rate, and the purity of the polypeptide=target peak area/total peak area×100%.
Conditions of the reversed phase chromatography Flow rate: 1.0 ml/min; Autosampler temperature: 15° C.; Column temperature: 25° C.; Detection wavelengths: 280 nm and 214 nm; Mobile phase A: 100% H2O+0.05% TFA; Mobile phase B: 100% ACN; and Gradient of elution listed in Table 6: […]

Structure (SMILES)	Fold change in activity against hAMY3R (amylin receptor (hAMY3R))	EC50 [1] [nM]	Fold change in activity against hCTR [1]	Concentration change on 26 d [2] [%]	Purity change on 7 d [2]	Purity change on 26 d [2]	Concentration change on 7 d [2]
CC(C)C[C@H](NC(=O)[C@H](CCCNC(=N)N)NC(=O)CNC(=O)[C@H](CC(C)C)NC(=O)[C@@H](NC(=O)[C@H](C)NC(=O)[C@@H](NC(=O)[C@H](CO)NC(=O)[C@H](CC(C)C)NC(=O)[C@H](CCC(N)=O)NC(=O)[C@H](CO)NC(=O)[C@H](C)NC(=O)CC[C@H](NC(=O)CCCCCCCCCCCCCCCCCCC(=O)O)C(=O)O)[C@@H](C)O)C(C)C)C(=O)N[C@@H](CO)C(=O)N[C@@H](CC(=O)O)C(=O)N[C@@H](CCC(=O)O)C(=O)N[C@@H](CC(C)C)C(=O)N[C@@H](Cc1c[nH]cn1)C(=O)N[C@@H](CCCNC(=N)N)C(=O)N[C@@H](CC(C)C)C(=O)N[C@@H](CCC(N)=O)C(=O)N[C@@H](CC(=O)O)C(=O)N[C@@H](Cc1ccc(O)cc1)C(=O)N1CCC[C@H]1C(=O)N[C@@H](CCCNC(=N)N)C(=O)N[C@H](C(=O)N[C@@H](CC(=O)O)C(=O)N[C@H](C(=O)NCC(=O)N[C@@H](CO)C(=O)NCC(=O)N[C@@H](CO)C(=O)N1CCC[C@H]1C(N)=O)C(C)C)[C@@H](C)O [M6] ({C20 diacid-γGlu}-ASQLSTAVLGRLSDELHRLQDYPRTDVGSGSP-NH2)	2.118	0.028	3.071	−1.865	1.64%	No change	
CC(C)C[C@H](NC(=O)[C@H](CCCNC(=N)N)NC(=O)CNC(=O)[C@H](CC(C)C)NC(=O)[C@@H](NC(=O)[C@H](C)NC(=O)[C@@H](NC(=O)[C@H](CO)NC(=O)[C@H](CC(C)C)NC(=O)[C@H](CCC(N)=O)NC(=O)[C@H](CO)NC(=O)[C@H](C)NC(=O)CC[C@H](NC(=O)CCCCCCCCCCCCCCCCC(=O)O)C(=O)O)[C@@H](C)O)C(C)C)C(=O)N[C@@H](CO)C(=O)N[C@@H](CC(=O)O)C(=O)N[C@@H](CCC(=O)O)C(=O)N[C@@H](CC(C)C)C(=O)N[C@@H](Cc1c[nH]cn1)C(=O)N[C@@H](CCCNC(=N)N)C(=O)N[C@@H](CC(C)C)C(=O)N[C@@H](CCC(N)=O)C(=O)N[C@@H](CC(=O)O)C(=O)N[C@@H](Cc1ccc(O)cc1)C(=O)N1CCC[C@H]1C(=O)N[C@@H](CCCNC(=N)N)C(=O)N[C@H](C(=O)N[C@@H](CC(=O)O)C(=O)N[C@H](C(=O)NCC(=O)N[C@@H](CO)C(=O)NCC(=O)N[C@@H](CO)C(=O)N1CCC[C@H]1C(N)=O)C(C)C)[C@@H](C)O [M8] ({C18 diacid-γGlu}-ASQLSTAVLGRLSDELHRLQDYPRTDVGSGSP-NH2)		0.165		−6.190	No change	−3.3%	No change (concentration change of less than 1% (denoted as “no change”))
CC(C)C[C@H](NC(=O)[C@H](CCCNC(=N)N)NC(=O)CNC(=O)[C@H](CC(C)C)NC(=O)[C@@H](NC(=O)[C@H](C)NC(=O)[C@@H](NC(=O)[C@H](CO)NC(=O)[C@H](CC(C)C)NC(=O)[C@H](CCC(N)=O)NC(=O)[C@H](CO)NC(=O)[C@H](C)NC(=O)CC[C@H](NC(=O)CCCCCCCCCCCCCCC(=O)O)C(=O)O)[C@@H](C)O)C(C)C)C(=O)N[C@@H](CO)C(=O)N[C@@H](CC(=O)O)C(=O)N[C@@H](CCC(=O)O)C(=O)N[C@@H](CC(C)C)C(=O)N[C@@H](Cc1c[nH]cn1)C(=O)N[C@@H](CCCNC(=N)N)C(=O)N[C@@H](CC(C)C)C(=O)N[C@@H](CCC(N)=O)C(=O)N[C@@H](CC(=O)O)C(=O)N[C@@H](Cc1ccc(O)cc1)C(=O)N1CCC[C@H]1C(=O)N[C@@H](CCCNC(=N)N)C(=O)N[C@H](C(=O)N[C@@H](CC(=O)O)C(=O)N[C@H](C(=O)NCC(=O)N[C@@H](CO)C(=O)NCC(=O)N[C@@H](CO)C(=O)N1CCC[C@H]1C(N)=O)C(C)C)[C@@H](C)O [M9] ({C16 diacid-γGlu}-ASQLSTAVLGRLSDELHRLQDYPRTDVGSGSP-NH2)		0.12		−7.796	−1.67%	−4.82%	−2.280%
CC(C)C[C@H](NC(=O)[C@H](CCCNC(=N)N)NC(=O)CNC(=O)[C@H](CC(C)C)NC(=O)[C@@H](NC(=O)[C@H](C)NC(=O)[C@@H](NC(=O)[C@H](CO)NC(=O)[C@H](CC(C)C)NC(=O)[C@H](CCC(N)=O)NC(=O)[C@H](CO)NC(=O)[C@H](C)NC(=O)[C@H](CC(=O)O)NC(=O)CCCCCCCCCCCCCCCCC(=O)O)[C@@H](C)O)C(C)C)C(=O)N[C@@H](CO)C(=O)N[C@@H](CC(=O)O)C(=O)N[C@@H](CCC(=O)O)C(=O)N[C@@H](CC(C)C)C(=O)N[C@@H](Cc1c[nH]cn1)C(=O)N[C@@H](CCCNC(=N)N)C(=O)N[C@@H](CC(C)C)C(=O)N[C@@H](CCC(N)=O)C(=O)N[C@@H](CC(=O)O)C(=O)N[C@@H](Cc1ccc(O)cc1)C(=O)N1CCC[C@H]1C(=O)N[C@@H](CCCNC(=N)N)C(=O)N[C@H](C(=O)N[C@@H](CC(=O)O)C(=O)N[C@H](C(=O)NCC(=O)N[C@@H](CO)C(=O)NCC(=O)N[C@@H](CO)C(=O)N1CCC[C@H]1C(N)=O)C(C)C)[C@@H](C)O [M13] ({C18 diacid}-DASQLSTAVLGRLSDELHRLQDYPRTDVGSGSP-NH2)		0.085		−5.520	−1.15%	−3.76%	−1.895%
CC(C)C[C@H](NC(=O)[C@H](CCCNC(=N)N)NC(=O)CNC(=O)[C@H](CC(C)C)NC(=O)[C@@H](NC(=O)[C@H](C)NC(=O)[C@@H](NC(=O)[C@H](CO)NC(=O)[C@H](CC(C)C)NC(=O)[C@H](CCC(N)=O)NC(=O)[C@H](CO)NC(=O)[C@H](C)NC(=O)COCCOCCNC(=O)COCCOCCNC(=O)[C@H]1CC[C@H](CNC(=O)CCCCCCCCCCCCCCCCC(=O)O)CC1)[C@@H](C)O)C(C)C)C(=O)N[C@@H](CO)C(=O)N[C@@H](CC(=O)O)C(=O)N[C@@H](CCC(=O)O)C(=O)N[C@@H](CC(C)C)C(=O)N[C@@H](Cc1c[nH]cn1)C(=O)N[C@@H](CCCNC(=N)N)C(=O)N[C@@H](CC(C)C)C(=O)N[C@@H](CCC(N)=O)C(=O)N[C@@H](CC(=O)O)C(=O)N[C@@H](Cc1ccc(O)cc1)C(=O)N1CCC[C@H]1C(=O)N[C@@H](CCCNC(=N)N)C(=O)N[C@H](C(=O)N[C@@H](CC(=O)O)C(=O)N[C@H](C(=O)NCC(=O)N[C@@H](CO)C(=O)NCC(=O)N[C@@H](CO)C(=O)N1CCC[C@H]1C(N)=O)C(C)C)[C@@H](C)O [M28] ({C18 diacid-Trx-AEEA-AEEA}-ASQLSTAVLGRLSDELHRLQDYPRTDVGSGSP-NH2)	18.000		0.966				
